Source: paper PMC8518382, “Identification of a Bromodomain‐like Region in 15‐Lipoxygenase‐1 Explains Its Nuclear Localization” (Angewandte Chemie (International Ed. in English), 2021)
“And” between values parts separate entries of the source, which are not always exact repeats. Equal entries are not always repeated.

Columns and labels:
Format in all cases: biochemical
5-LOX = molecular target: T1, 5-LOX (Homo sapiens, UniProt P09917); test: ABP-based ELISA assay with A549 cell lysate, 5-LOX
T1 construct: the endogenous LOXs were captured on an anti‐LOX antibody precoated 96‐well plate; endogenous in cells; host or cells: A549 cell lysate
T1 sequence (P09917 1-674): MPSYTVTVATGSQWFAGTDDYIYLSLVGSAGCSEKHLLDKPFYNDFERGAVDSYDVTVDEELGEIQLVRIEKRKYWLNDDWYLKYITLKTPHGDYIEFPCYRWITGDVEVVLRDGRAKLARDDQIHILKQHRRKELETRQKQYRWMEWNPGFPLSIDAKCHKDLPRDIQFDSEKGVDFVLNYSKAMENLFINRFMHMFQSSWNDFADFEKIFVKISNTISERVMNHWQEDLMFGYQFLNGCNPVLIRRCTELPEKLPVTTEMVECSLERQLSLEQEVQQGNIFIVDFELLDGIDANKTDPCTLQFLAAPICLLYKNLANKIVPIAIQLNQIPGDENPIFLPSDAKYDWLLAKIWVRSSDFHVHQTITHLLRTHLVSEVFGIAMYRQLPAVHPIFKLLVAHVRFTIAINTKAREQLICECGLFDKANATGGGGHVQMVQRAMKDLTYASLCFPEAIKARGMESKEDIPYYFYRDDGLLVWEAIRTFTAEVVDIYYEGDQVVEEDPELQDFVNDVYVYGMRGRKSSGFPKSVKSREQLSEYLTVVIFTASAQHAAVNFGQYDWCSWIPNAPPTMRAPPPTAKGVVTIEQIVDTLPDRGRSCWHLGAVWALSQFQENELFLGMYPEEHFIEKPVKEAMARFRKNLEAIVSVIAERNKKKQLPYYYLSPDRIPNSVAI
Method: (§1) A549 cell lysate was treated with a serial dilution of the respective inhibitor. Subsequently, samples were labeled by treatment with 1 μM of Labelox B for 1 min. […] Data are mean±s.d., n≥3 independent experiments. […]
(§2) 1.6. Immunoblotting Analysis […]
(§3) 1.7. ABPP-based LOX inhibitor specificity validation
(§4) A549 cells were lysed by RIPA buffer supplemented with 1x PIC. After sonication and centrifugation, the supernatant was collected, and the protein concentration was determined by a Pierce BCA Protein Assay Kit (Thermo Fisher Scientific, USA). The lysates were then diluted with PBS to 300 ng/µl and stored in -20°C. To label endogenous LOXs with Labelox B under the competition condition, 180 µl diluted lysates were incubated with 200 µl different LOX inhibitor solution (in PBS) with desired concentrations for 18 min to inhibit LOXs activity. Later, 20 µl of a 20 µM Labelox B (in PBS) was added and incubated shortly for 2 min, followed by adding 50 µl of a 0.5 M EDTA to stop the labeling reaction. The reaction mixture was 450 µl in total. Inhibitors and Labelox B were absent in positive and […]
(§5) negative control, respectively. To detect the competition labeling of Labelox B among different LOXs, a high-binding 96-well plate (Greiner, #M4561) was coated with 5-LOX (#ab169755, Abcam), 12-LOX […]
(§6) (1:500 dilution in PBS) for overnight at 4°C. After washing triply with 0.05%PBST, the plate was blocked with 2% (w/v) BSA in PBST. Subsequently, 100 µl of each reaction mixture was added to the LOX-antibody-coated wells. There are four LOX antibodies used for coating. Therefore, in total, 400 µl mixture is needed for each reaction. After one hour of incubation, LOXs were pulled down by antibodies accordingly. Next, 100 µl of HRP-conjugated streptavidin (1:2000 dilution in PBS, Thermo Fisher Scientific, USA) was added to each well to detect the D04 labeled LOXs among precipitated LOXs. After washing with PBST, 100 µl of mixed HRP substrate reagent (R&D Systems, Minneapolis, USA) was added, and the colorizing reaction was stopped by adding 100 µl of 1M sulfuric acid. The absorbance at […]

12-LOX = molecular target: T2, 12-LOX (Homo sapiens, UniProt P18054); test: ABP-based ELISA assay with A549 cell lysate, 12-LOX
T2 construct: the endogenous LOXs were captured on an anti‐LOX antibody precoated 96‐well plate; endogenous in cells; host or cells: A549 cell lysate
T2 sequence (P18054 1-663): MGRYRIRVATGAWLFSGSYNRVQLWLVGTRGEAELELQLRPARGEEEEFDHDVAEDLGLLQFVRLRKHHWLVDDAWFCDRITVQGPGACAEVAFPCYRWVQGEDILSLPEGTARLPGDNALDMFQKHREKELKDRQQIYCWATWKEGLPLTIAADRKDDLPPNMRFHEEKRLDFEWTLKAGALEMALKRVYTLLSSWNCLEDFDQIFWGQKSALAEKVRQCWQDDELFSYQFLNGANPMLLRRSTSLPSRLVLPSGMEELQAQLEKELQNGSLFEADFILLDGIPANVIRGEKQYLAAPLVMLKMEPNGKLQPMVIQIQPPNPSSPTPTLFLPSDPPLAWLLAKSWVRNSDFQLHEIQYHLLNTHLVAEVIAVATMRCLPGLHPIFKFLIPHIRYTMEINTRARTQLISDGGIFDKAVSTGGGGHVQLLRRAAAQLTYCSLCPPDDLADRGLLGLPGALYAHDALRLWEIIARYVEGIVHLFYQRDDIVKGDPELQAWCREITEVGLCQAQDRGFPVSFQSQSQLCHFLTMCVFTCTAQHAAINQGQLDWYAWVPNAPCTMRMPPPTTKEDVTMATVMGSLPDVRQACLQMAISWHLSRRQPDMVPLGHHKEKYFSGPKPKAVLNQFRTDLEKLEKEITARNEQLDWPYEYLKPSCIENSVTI
Method: as §1, §2, §3, §4, §5, §6

15-LOX-2 = molecular target: T3, 15-LOX-2 (Homo sapiens, UniProt O15296); test: ABP-based ELISA assay with A549 cell lysate, 15-LOX-2
T3 construct: endogenous in cells; host or cells: A549 cell lysate
T3 sequence (O15296 1-676): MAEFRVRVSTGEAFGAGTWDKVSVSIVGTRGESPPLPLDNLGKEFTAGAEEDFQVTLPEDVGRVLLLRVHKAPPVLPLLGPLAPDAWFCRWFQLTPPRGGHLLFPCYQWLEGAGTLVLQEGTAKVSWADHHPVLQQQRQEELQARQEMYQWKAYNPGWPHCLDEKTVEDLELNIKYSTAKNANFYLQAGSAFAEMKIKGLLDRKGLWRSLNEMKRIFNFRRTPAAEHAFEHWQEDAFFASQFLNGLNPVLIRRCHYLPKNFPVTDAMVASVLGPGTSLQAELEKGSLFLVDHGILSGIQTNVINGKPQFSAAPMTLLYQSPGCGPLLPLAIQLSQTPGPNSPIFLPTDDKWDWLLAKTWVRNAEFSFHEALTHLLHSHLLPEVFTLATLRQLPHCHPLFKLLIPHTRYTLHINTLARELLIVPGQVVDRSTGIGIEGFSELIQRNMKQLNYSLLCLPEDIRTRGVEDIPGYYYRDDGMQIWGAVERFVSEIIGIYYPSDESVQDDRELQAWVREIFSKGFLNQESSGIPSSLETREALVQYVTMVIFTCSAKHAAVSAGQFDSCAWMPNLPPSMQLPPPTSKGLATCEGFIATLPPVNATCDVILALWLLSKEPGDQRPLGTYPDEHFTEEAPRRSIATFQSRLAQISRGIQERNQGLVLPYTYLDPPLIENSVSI
Method: as §1, §2, §3, §4
(1 picture or pasted object on this page, not shown here) […]
as §5
as §6, with “After washing with PBST, 100 µl of mixed HRP substrate reagent (R&D Systems, Minneapolis, USA) was added, and the colorizing reaction was stopped by adding 100 µl of 1M sulfuric acid.” left out

| SMILES | HillSlope Value (5-LOX) | HillSlope Value (12-LOX) | HillSlope Value (15-LOX-2) | IC50 (5-LOX; 1 μM Labelox B) | IC50 (12-LOX; 1 μM Labelox B) | IC50 (15-LOX-2; 1 μM Labelox B) |
| --- | --- | --- | --- | --- | --- | --- |
| O=c1cc(-c2ccccc2)oc2cc(O)c(O)c(O)c12 [Baicalein] | -0.26 | -0.41 | -0.34 |  |  |  |
| c1ccc2c(c1)SCc1c-2[nH]c2ccccc12 [PD146176] | -0.99 | -0.98 | -0.88 | ~17 µM and 14.8 µM | ~17 µM and 19.1 µM | > 100 µM and 123 µM |
